Experimental data as given in article PMC4958244 (mBio, 2016).

Columns and labels:
N-Als3p [1] = molecular target: T1, N-Als3p (Candida albicans, UniProt Q59L12); assay: CFG glycan array v5.[…]; assay type: binding; details: glycan printed on glass slide, N-Als3p NT-647 labelled
T1 construct: gene ALS3; N-terminal part (Ig-like adhesin domain); recombinant, purified from S. cerevisiae or E. coli as previously described

N-Epa1p = molecular target: T2, N-Epa1p (Nakaseomyces glabratus, UniProt Q6VBJ0); assay: SPR inhibition of binding to immobilised mucin; details: competition with porcine stomach mucin, lactose 6 µM to 1.5 mM, 25°C
T2 construct: gene EPA1; N-terminal PA14-like lectin domain; recombinant, purified from S. cerevisiae or E. coli as previously described
T2 sequence (Q6VBJ0 entry or part of it): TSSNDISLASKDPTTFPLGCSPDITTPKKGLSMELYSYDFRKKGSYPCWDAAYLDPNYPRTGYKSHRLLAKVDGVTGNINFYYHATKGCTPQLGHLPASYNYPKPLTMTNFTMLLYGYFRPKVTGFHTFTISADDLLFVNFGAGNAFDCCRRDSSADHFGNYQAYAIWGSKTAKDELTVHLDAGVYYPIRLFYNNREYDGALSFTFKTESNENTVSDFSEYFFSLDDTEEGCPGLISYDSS

[2] = molecular target: Laminin, from human placenta (human); assay: SPR; Biacore 3000, 25°C; FN, mucin or laminin covalently immobilised on a CM5 chip by amine coupling, adhesin domain flowed over; dissociation constants in the equilibrium state
N-Als3p [3] = molecular target: T1, N-Als3p; assay: SPR, immobilised BSA-GlcNAc; assay type: binding; details: GlcNAc shown as BSA glycoconjugate on CM5 chip, 25°C
[4] = molecular target: Mucin, partially purified from porcine stomach (porcine); assay: SPR; Biacore 3000, 25°C; FN, mucin or laminin covalently immobilised on a CM5 chip by amine coupling, adhesin domain flowed over; dissociation constants in the equilibrium state
Fibronectin (FN) = Fibronectin (FN) (UniProt P02751 32-2477); assay: as above; details: both partners purified
Sequence of Fibronectin (FN) (P02751 32-2477): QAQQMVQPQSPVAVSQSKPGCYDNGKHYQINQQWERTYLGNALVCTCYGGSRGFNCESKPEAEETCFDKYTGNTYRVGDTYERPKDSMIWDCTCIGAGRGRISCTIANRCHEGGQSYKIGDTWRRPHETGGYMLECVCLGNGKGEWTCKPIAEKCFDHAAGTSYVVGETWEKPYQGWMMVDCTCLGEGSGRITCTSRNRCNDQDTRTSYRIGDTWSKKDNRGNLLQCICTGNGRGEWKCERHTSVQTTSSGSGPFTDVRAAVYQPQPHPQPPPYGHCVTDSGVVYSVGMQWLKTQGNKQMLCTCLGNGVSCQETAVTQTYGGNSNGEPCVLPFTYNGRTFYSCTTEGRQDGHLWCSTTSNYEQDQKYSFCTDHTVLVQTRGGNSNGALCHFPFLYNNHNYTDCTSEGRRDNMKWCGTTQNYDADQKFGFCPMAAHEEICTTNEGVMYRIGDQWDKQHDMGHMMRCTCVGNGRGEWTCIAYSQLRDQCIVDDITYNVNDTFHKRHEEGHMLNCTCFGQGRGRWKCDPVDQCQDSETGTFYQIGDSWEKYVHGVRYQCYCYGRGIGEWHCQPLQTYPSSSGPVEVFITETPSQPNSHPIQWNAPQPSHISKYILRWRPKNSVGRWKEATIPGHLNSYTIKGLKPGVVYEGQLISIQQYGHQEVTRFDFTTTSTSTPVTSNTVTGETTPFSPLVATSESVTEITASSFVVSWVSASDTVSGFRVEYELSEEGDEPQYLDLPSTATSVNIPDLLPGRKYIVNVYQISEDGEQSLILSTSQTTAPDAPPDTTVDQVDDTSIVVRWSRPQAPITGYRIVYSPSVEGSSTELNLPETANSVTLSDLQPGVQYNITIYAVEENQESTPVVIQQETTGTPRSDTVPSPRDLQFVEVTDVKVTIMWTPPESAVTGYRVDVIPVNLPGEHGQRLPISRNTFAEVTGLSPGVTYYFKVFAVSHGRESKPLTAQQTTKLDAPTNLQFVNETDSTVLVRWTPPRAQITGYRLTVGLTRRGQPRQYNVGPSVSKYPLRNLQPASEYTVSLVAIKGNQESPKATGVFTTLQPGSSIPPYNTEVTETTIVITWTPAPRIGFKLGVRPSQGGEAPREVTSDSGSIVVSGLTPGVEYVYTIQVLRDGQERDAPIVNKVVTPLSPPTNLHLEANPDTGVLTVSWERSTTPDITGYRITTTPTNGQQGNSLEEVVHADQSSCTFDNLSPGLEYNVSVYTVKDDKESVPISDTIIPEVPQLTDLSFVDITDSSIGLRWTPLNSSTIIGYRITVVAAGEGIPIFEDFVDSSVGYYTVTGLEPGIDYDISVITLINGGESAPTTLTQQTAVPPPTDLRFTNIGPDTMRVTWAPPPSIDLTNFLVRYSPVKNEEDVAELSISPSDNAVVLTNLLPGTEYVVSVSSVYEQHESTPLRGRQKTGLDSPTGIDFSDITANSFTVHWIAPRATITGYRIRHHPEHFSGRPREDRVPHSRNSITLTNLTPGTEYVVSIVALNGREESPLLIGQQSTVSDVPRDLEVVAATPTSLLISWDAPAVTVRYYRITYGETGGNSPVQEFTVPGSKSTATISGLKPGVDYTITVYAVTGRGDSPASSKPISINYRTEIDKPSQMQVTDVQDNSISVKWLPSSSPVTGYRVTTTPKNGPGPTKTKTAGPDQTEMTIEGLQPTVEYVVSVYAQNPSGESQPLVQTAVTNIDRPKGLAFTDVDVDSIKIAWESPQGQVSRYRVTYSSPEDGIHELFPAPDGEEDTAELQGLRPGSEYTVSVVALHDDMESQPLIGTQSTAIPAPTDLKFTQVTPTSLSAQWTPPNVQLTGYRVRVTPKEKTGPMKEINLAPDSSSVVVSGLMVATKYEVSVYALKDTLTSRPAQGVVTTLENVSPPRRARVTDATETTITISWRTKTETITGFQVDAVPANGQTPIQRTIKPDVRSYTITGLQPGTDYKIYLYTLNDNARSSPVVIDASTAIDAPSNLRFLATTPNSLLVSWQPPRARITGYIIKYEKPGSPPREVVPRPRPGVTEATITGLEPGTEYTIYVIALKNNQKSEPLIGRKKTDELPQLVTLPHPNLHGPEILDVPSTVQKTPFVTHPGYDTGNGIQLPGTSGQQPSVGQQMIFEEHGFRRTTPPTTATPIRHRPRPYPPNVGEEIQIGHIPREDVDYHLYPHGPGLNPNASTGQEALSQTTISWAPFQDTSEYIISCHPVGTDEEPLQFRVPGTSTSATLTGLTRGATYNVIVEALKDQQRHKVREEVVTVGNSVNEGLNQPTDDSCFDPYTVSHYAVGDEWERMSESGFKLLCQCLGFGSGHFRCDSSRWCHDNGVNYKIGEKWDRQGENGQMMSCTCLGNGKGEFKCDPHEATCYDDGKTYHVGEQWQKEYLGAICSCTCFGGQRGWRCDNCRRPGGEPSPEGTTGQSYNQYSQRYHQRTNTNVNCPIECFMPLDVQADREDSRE

## CC(=O)N[C@H]1[C@H](O[C@H]2[C@@H](O)[C@@H](CO)OC(O)[C@@H]2NC(C)=O)O[C@H](CO)[C@@H](O)[C@@H]1O (some centres unmarked) [GlcNAcβ-1,3GalNAc]
N-Als3p [1]; 200 µg/ml
  CFG glycan array v5.0: GlcNAcβ-1,3GalNAc and Fucα-1,2-Galβ-1,3-GalNAcβ-1,3-Gal were also recognized

## OC[C@H]1O[C@@H](O[C@H]2[C@H](O)[C@@H](O)C(O)O[C@@H]2CO)[C@H](O)[C@@H](O)[C@H]1O (some centres unmarked) [lactose]
N-Epa1p
  SPR inhibition of binding to immobilised mucin: binding of N-Epa1p to mucin could be blocked by lactose in a concentration-dependent manner

## N-terminal part of Als3p from Candida albicans (N-Als3p) (domain or fragment)
[2]
  Kd: 410 µM

## CC(=O)N[C@H]1C(O)O[C@H](CO)[C@@H](O)[C@@H]1O (some centres unmarked) [GlcNAc]
N-Als3p [3]
  SPR, immobilised BSA-GlcNAc: SPR experiments confirmed the binding of N-Als3p to GlcNAc

## CC(=O)N[C@H]1C(O)O[C@H](CO)[C@H](O)[C@@H]1O[C@@H]1O[C@H](CO)[C@H](O)[C@H](O)[C@H]1O (some centres unmarked) [T antigen]
N-Als3p [1]; 200 and 20 µg/ml
  CFG glycan array v5.0: N-Als3p bound also to the T antigen

## N-terminal domain of Epa1p from Candida glabrata (N-Epa1p) (domain or fragment)
[4]
  Kd: 4.67 µM

## CC(=O)N[C@H]1[C@H](O[C@H]2[C@@H](O)[C@@H](CO)OC(O)[C@@H]2O)O[C@H](CO)[C@H](O)[C@@H]1O[C@@H]1O[C@H](CO)[C@H](O)[C@H](O)[C@H]1O[C@@H]1O[C@@H](C)[C@@H](O)[C@@H](O)[C@@H]1O (some centres unmarked) [Fucα-1,2-Galβ-1,3-GalNAcβ-1,3-Gal]
N-Als3p [1]; 200 µg/ml
  CFG glycan array v5.0: GlcNAcβ-1,3GalNAc and Fucα-1,2-Galβ-1,3-GalNAcβ-1,3-Gal were also recognized

B1: N-terminal part of Als3p from Candida albicans (N-Als3p) (domain or fragment)
chain: KTITGVFNSFNSLTWSNAATYNYKGPGTPTWNAVLGWSLDGTSASPGDTFTLNMPCVFKFTTSQTSVDLTAHGVKYATCQFQAGEEFMTFSTLTCTVSNTLTPSIKALGTVTLPLAFNVGGTGSSVDLEDSKCFTAGTNTVTFNDGGKKISINVDFERSNVDPKGYLTDSRVIPSLNKVSTLFVAPQCANGYTSGTMGFANTYGDVQIDCSNIHVGITKGLNDWNYPVSSESFSYTKTCSSNGIFITYKNVPAGYRPFVDAYISATDVNSYTLSYANEYTCAGGYWQRAPFTLRWTGYRNSDAGSNGIVIVATTRTVTDSTTAVTTLPFDPNRDKTKTIEILKPIPTTTITTSYVGVTTSYSTKTAPIGETATVIVDIPYHTTTTVTSKWTGTITSTTTHTNPTDSIDTVIVQVP
modifications: Secreted from S. cerevisiae, C-terminal His tag omitted. The strain of the allele is not given; the SC5314 reference entry is used. Limits 18-432 are printed in Text S1.
Fibronectin (FN)
  Kd: 10 ± 1 µM
